In patent US20260125382A1, “COMPOUNDS FOR INHIBITING OR DEGRADING CDK2 AND/OR CDK9 AND MEDICINAL USE THEREOF” (KOREA RESEARCH INSTITUTE OF CHEMICAL TECHNOLOGY, priority 2022, published 2026):

Tests used:
CDK2 = molecular target: T1, CDK2 (Homo sapiens, UniProt P24941); assay: CDK protein degradation activity (Western blotting), CDK2; type: cell-based; settings: MDA-MB-231 cells, 16 hours, Western blot
T1 construct: endogenous in cells; host or cells: MDA-MB-231
In short: (§1)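 Seed MDA-MB-231 cells; next day add compound to 100 nM, 1 μM or 10 μM final, or DMSO. After 16 h, harvest and lyse in Triton X-100 buffer, run SDS-PAGE, probe for CDK2, CDK9 and tubulin.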

CDK9 = molecular target: T2, CDK9 (Homo sapiens, UniProt P50750); assay: CDK protein degradation activity (Western blotting), CDK9; type: cell-based; settings: MDA-MB-231 cells, 16 hours, Western blot
T2 construct: endogenous in cells; host or cells: MDA-MB-231
T2 sequence (P50750 whole entry): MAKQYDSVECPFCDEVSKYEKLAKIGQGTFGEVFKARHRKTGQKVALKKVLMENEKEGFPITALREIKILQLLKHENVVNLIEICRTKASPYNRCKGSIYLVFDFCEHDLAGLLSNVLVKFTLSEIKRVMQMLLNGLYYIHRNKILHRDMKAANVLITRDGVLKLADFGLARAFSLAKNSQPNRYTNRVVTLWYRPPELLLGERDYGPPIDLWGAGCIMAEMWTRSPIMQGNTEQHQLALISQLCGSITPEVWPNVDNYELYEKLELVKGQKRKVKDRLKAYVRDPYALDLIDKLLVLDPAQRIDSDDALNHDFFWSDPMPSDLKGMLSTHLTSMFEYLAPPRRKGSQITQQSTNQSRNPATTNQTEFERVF
In short: as §1

| Enzyme degradation CDK2 (% remaining) @ 0.1 μM (CDK2) | Enzyme degradation CDK2 (% remaining) @ 1 μM (CDK2) | Enzyme degradation CDK2 (% remaining) @ 10 μM (CDK2) | Enzyme degradation CDK9 (% remaining) @ 0.1 μM (CDK9) | Enzyme degradation CDK9 (% remaining) @ 1 μM (CDK9) | Enzyme degradation CDK9 (% remaining) @ 10 μM (CDK9) | Structure (SMILES) |
| --- | --- | --- | --- | --- | --- | --- |
| 10% | 0% | 0% | 20% | 0% | 0% | O=C1CC[C@@H](c2cccc(OCC(=O)N3CCN(CCCN4CCN(c5ccc(Nc6ncnc7c6ncn7C6CC(NC(=O)Cc7ccccc7)C6)cc5)CC4)CC3)c2)C(=O)N1 (stereo partly drawn) [Compound 237, N-((1s,3s)-3-(6-((4-(4-(3-(4-(2-(3-(2,6-dioxopiperidin-3-yl)phenoxy)acetyl)piperazin-1-yl)propyl)piperazin-1-yl)phenyl)amino)-9H-purin-9-yl)cyclobutyl)-2-phenylacetamide] |
| 100% | 80% | 50% | 70% | 20% | 0% | O=C1CC[C@H](N2C(=O)c3cccc(N4CCN(CCCN5CCN(c6ccc(Nc7ncnc8c7ncn8C7CC(NC(=O)Cc8ccccc8)C7)cc6)CC5)CC4)c3C2=O)C(=O)N1 (stereo partly drawn) [Compound 238, N-((1s,3s)-3-(6-((4-(4-(3-(4-(2-(2,6-dioxopiperidin-3-yl)-1,3-dioxoisoindolin-4-yl)piperazin-1-yl)propyl)piperazin-1-yl)phenyl)amino)-9H-purin-9-yl)cyclobutyl)-2-phenylacetamide] |
| 100% | 20% | 20% | 70% | 0% | 0% | O=C1CCC(N2C(=O)c3ccc(N4CCN(CCCN5CCN(c6ccc(Nc7ncnc8c7ncn8[C@H]7C[C@@H](NC(=O)Cc8ccccc8)C7)cc6)CC5)CC4)cc3C2=O)C(=O)N1 (stereo partly drawn) [Compound 239, N-((1s,3s)-3-(6-((4-(4-(3-(4-(2-(2,6-dioxopiperidin-3-yl)-1,3-dioxoisoindolin-5-yl)piperazin-1-yl)propyl)piperazin-1-yl)phenyl)amino)-9H-purin-9-yl)cyclobutyl)-2-phenylacetamide] |
| 70% | 50% | 40% | 60% | 0% | 0% | O=C1CC[C@H](N2C(=O)c3cc(F)c(N4CCC5(CC4)CC(N4CCN(c6ccc(Nc7ncnc8c7ncn8[C@H]7C[C@@H](NC(=O)Cc8ccccc8)C7)cc6)CC4)C5)cc3C2=O)C(=O)N1 [Compound 244, N-((1s,3s)-3-(6-((4-(4-(7-(2-(2,6-dioxopiperidin-3-yl)-6-fluoro-1,3-dioxoisoindolin-5-yl)-7-azaspiro[3.5]nonan-2-yl)piperazin-1-yl)phenyl)amino)-9H-purin-9-yl)cyclobutyl)-2-phenylacetamide] |

More lines, now with the values behind:

| Structure (SMILES) | Enzyme degradation CDK2 (% remaining) @ 0.1 μM (CDK2) | Enzyme degradation CDK2 (% remaining) @ 1 μM (CDK2) | Enzyme degradation CDK2 (% remaining) @ 10 μM (CDK2) | Enzyme degradation CDK9 (% remaining) @ 0.1 μM (CDK9) | Enzyme degradation CDK9 (% remaining) @ 1 μM (CDK9) | Enzyme degradation CDK9 (% remaining) @ 10 μM (CDK9) |
| --- | --- | --- | --- | --- | --- | --- |
| O=C1CC[C@@H](c2cccc(OCC(=O)N3CCC4(CC3)CC(N3CCN(c5ccc(Nc6ncnc7c6ncn7C6CC(NC(=O)Cc7ccccc7)C6)cc5)CC3)C4)c2)C(=O)N1 (stereo partly drawn) [Compound 226, N-((1s,3s)-3-(6-((4-(4-(7-(2-(3-(2,6-dioxopiperidin-3-yl)phenoxy)acetyl)-7-azaspiro[3.5]nonan-2-yl)piperazin-1-yl)phenyl)amino)-9H-purin-9-yl)cyclobutyl)-2-phenylacetamide] | 40% | 30% | 40% | 0/0/0% | 0/0/0% | 0/0/0% |
| O=C1CC[C@@H](c2cccc(OCC(=O)N3CCC(CC(=O)N4CCN(c5ccc(Nc6ncnc7c6ncn7[C@H]6C[C@@H](NC(=O)Cc7ccccc7)C6)cc5)CC4)CC3)c2)C(=O)N1 [Compound 227, N-((1s,3s)-3-(6-((4-(4-(2-(1-(2-(3-(2,6-dioxopiperidin-3-yl)phenoxy)acetyl)piperidin-4-yl)acetyl)piperazin-1-yl)phenyl)amino)-9H-purin-9-yl)cyclobutyl)-2-phenylacetamide] | 50% | 20% | 70% | 60% | 70% | 10% |
| Cc1cccc(C(=O)NC2CC(n3cnc4c(NCCCN5CCN(CC6CCN(C(=O)COc7ccc([C@@H]8CCC(=O)NC8=O)cc7)CC6)CC5)ncnc43)C2)n1 (stereo partly drawn) [Compound 229, N-((1s,3s)-3-(6-((3-(4-((1-(2-(4-(2,6-dioxopiperidin-3-yl)phenoxy)acetyl)piperidin-4-yl)methyl)piperazin-1-yl)propyl)amino)-9H-purin-9-yl)cyclobutyl)-6-methylpicolinamide] | 70% | 90% | 100% | 20% | 10% | 0% |
| Cc1cccc(C(=O)N[C@H]2C[C@@H](n3cnc4c(NCCCN5CCN(CC6CCN(C(=O)COc7cccc([C@@H]8CCC(=O)NC8=O)c7)CC6)CC5)ncnc43)C2)n1 [Compound 230, N-((1s,3s)-3-(6-((3-(4-((1-(2-(3-(2,6-dioxopiperidin-3-yl)phenoxy)acetyl)piperidin-4-yl)methyl)piperazin-1-yl)propyl)amino)-9H-purin-9-yl)cyclobutyl)-6-methylpicolinamide] | 50% | 50% | 80% | 30% | 10% | 0% |
| O=C1CC[C@H](N2C(=O)c3cccc(NCC(=O)N4CCN(CCCN5CCN(c6ccc(Nc7ncnc8c7ncn8[C@H]7C[C@@H](NC(=O)Cc8ccccc8)C7)cc6)CC5)CC4)c3C2=O)C(=O)N1 [Compound 231, N-((1s,3s)-3-(6-((4-(4-(3-(4-((2-(2,6-dioxopiperidin-3-yl)-1,3-dioxoisoindolin-4-yl)glycyl)piperazin-1-yl)propyl)piperazin-1-yl)phenyl)amino)-9H-purin-9-yl)cyclobutyl)-2-phenylacetamide] | 50% | 60% | 40% | 20% | 0% | 0% |
| O=C1CCC(N2C(=O)c3cccc(OCC(=O)N4CCN(CCCN5CCN(c6ccc(Nc7ncnc8c7ncn8[C@H]7C[C@@H](NC(=O)Cc8ccccc8)C7)cc6)CC5)CC4)c3C2=O)C(=O)N1 (stereo partly drawn) [Compound 232, N-((1s,3s)-3-(6-((4-(4-(3-(4-(2-((2-(2,6-dioxopiperidin-3-yl)-1,3-dioxoisoindolin-4-yl)oxy)acetyl)piperazin-1-yl)propyl)piperazin-1-yl)phenyl)amino)-9H-purin-9-yl)cyclobutyl)-2-phenylacetamide] | 60% | 20% | 20% | 90% | 10% | 0% |
| O=C1CC[C@H](N2C(=O)c3ccc(NCC(=O)N4CCN(CCCN5CCN(c6ccc(Nc7ncnc8c7ncn8C7CC(NC(=O)Cc8ccccc8)C7)cc6)CC5)CC4)cc3C2=O)C(=O)N1 (stereo partly drawn) [Compound 233, N-((1s,3s)-3-(6-((4-(4-(3-(4-((2-(2,6-dioxopiperidin-3-yl)-1,3-dioxoisoindolin-5-yl)glycyl)piperazin-1-yl)propyl)piperazin-1-yl)phenyl)amino)-9H-purin-9-yl)cyclobutyl)-2-phenylacetamide] | 80% | 80% | 70% | 40% | 0% | 0% |
| O=C1CC[C@H](N2C(=O)c3ccc(OCC(=O)N4CCN(CCCN5CCN(c6ccc(Nc7ncnc8c7ncn8[C@H]7C[C@@H](NC(=O)Cc8ccccc8)C7)cc6)CC5)CC4)cc3C2=O)C(=O)N1 [Compound 234, N-((1s,3s)-3-(6-((4-(4-(3-(4-(2-((2-(2,6-dioxopiperidin-3-yl)-1,3-dioxoisoindolin-5-yl)oxy)acetyl)piperazin-1-yl)propyl)piperazin-1-yl)phenyl)amino)-9H-purin-9-yl)cyclobutyl)-2-phenylacetamide] | 100% | 80% | 70% | 60% | 40% | 0% |
| O=C1CC[C@@H](c2ccc(OCC(=O)N3CCN(CCCN4CCN(c5ccc(Nc6ncnc7c6ncn7C6CC(NC(=O)Cc7ccccc7)C6)cc5)CC4)CC3)cc2)C(=O)N1 (stereo partly drawn) [Compound 236, N-((1s,3s)-3-(6-((4-(4-(3-(4-(2-(4-(2,6-dioxopiperidin-3-yl)phenoxy)acetyl)piperazin-1-yl)propyl)piperazin-1-yl)phenyl)amino)-9H-purin-9-yl)cyclobutyl)-2-phenylacetamide] | 50/50/50% | 50/50/50% | 50/50/50% | 20% | 0% | 0% |
